We go through one compound from US20040162350A1, “Method of treating a non-cancerous disease of the male prostate” (priority 2003, published 2004).

The subject of test [1] is male volunteers. The test can be described thus: Number of night awakenings with the need to urinate, recorded by male volunteers over six-week trial periods. It is filed as in vivo, human. The following applies: volunteers who woke three or more times a night in more than 28 nights of six-week baseline; multiple daily doses of 15-20 grams; result in at least two thirds of the nights of a subsequent six week trial period; seen in some volunteers. The text has this:
A group of male volunteers recorded for six weeks the number of times a night that they were awakened with the need to urinate. Those who woke up three or more times a night in more than 28 nights durng the six week trial were then given multiple daily doses of 15-20 grams of 2-amino-4-carbamoylbutanoic acid and continued to record the number of times a night that they were awakened with the need to urinate.

Test [2] relates to prostate enlargement. Briefly: Treatment of a person with prostate enlargement diagnosed as a non-cancerous condition. The following applies: 10 grams with each meal, total 40 grams daily. It is filed as in vivo, human. The text has this:
A person with prostate enlargement diagnosed as a non-cancerous condition started a regimen of taking 10 grams of 2-amino-4-carbamoylbutanoic acid with each meal for a total of 40 grams daily.

Turning to `NC(=O)CCC(N)C(=O)O` (stereo not drawn) [2-amino-4-carbamoylbutanoic acid], the “number of times a night awakened with the need to urinate” value in test [1] was “diminished from three or more times a night to twice, once, and even none at all”. In test [2] (after a few weeks), the relief felt result is “felt relief”. Also, the prostate size result in test [2] (after two months of this regimen) is on record as “shrunk to normal size”.
